Experimental data as given in publication PMC6630718, “Discovery of Novel UV-Filters with Favorable Safety Profiles in the 5-Arylideneimidazolidine-2,4-dione Derivatives Group” (Molecules, 2019).
Values joined by “and” are separate entries in the source; they are usually repeats but may differ in a detail not shown here. Equal values may be shown once.

Experiments:
[1] = test system: Salmonella typhimurium and Escherichia coli strains; test: Ames MPF Penta 2 mutagenicity assay, overall verdict over all strains; type: cell-based; settings: in the absence and presence of metabolic activation
Excerpt: (§1) Growth, exposure and indicator media, liver S9 fraction, S9-NADP, S9-G-6-P, positive control chemicals as well as Salmonella typhimurium and Escherichia coli strains were included in the kit from Xenometrix. According to the obtained results, there were no doses of test compounds 3b and 4g with more than a 2-fold induction over the baseline, and a dose dependent response was not observed both in the absence and presence of metabolic activation (Table S3). Therefore, compounds 3b and 4g were clearly non-mutagenic in the absence and presence of metabolic activation.

[2] = as above; type: cell-based, Salmonella typhimurium, Escherichia coli; settings: Salmonella typhimurium, Escherichia coli; 0.1, 0.2 and 0.5 mM, absence and presence of metabolic activation; read-out: fold induction over the baseline, any dose and strain
Excerpt: as §1

[3] = Photostability in macrogol formulations on PMMA plates (solar light simulator); type: physicochemical; settings: for % of Initial AUC / % of Initial SPFin vitro / % of Initial UVA PF: after 1 h irradiation at 500 W/m^2, formulation F1
In short: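 Macrogol formulations (2% w/w) applied at 1.3 mg/cm² on PMMA plates were irradiated 1 h at 500 W/m² (218 kJ/m² UV) in a solar simulator with <290 nm cut-off and IR block. SPFin vitro, UVA PF and AUC were compared before and after exposure, with methanol washes analysed by UPLC-MS/MS, in duplicate.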

[4] = Ames MPF Penta 2 microplate mutagenicity assay, TA1537; settings: Salmonella typhimurium, FIB (fold induction over baseline)
Procedure: (§2) The assay is a liquid microplate modification of the traditional Salmonella test. During the procedure, bacteria are exposed to different concentrations of a test compound for 90 min in a medium containing sufficient histidine (S. typhimurium) or tryptophan (E. coli) to support cell divisions. Then, the cultures are diluted in pH indicator medium lacking histidine or tryptophan and aliquoted into 48 wells of a 384-well plate. Within 48 hours, cells that have undergone reversion to amino acid prototrophy will grow into colonies. Bacterial metabolism reduces pH of the medium, changing the color of that well from purple to yellow (https://www.xenometrix.ch).
(§3) The following strains were used in the study: S. typhimurium TA98, TA100, TA1535, TA1537 and E. coli wp2 uvrA[pKM101]. TA100, TA1535 and E. coli strains are used for the detection of base substitution mutations, whereas TA98 and TA1537 are utilized for the detection of frameshift mutations. S. typhimurium strains have GC base pairs, whereas E. coli strain has AT base pair at their primary reversion site and detect certain oxidizing mutagens, cross-linking agents and hydrazines.
(§4) The test procedure provided by Xenometrix (https://www.xenometrix.ch) and described earlier was followed. Briefly, the bacterial strains were grown overnight in exposure medium and exposed to test compounds 4g and 3b in 24-well plates for 90 min at 37 °C with agitation in the absence (–S9) or presence (+S9) of 4.5% phenobarbital/ β-naphthoflavone-induced rat liver S9. Compounds 4g and 3b were dissolved in DMSO and tested at final concentrations of 0.1, 0.2 and 0.5 mM. After the preincubation, the cultures were diluted in the indicator medium and the contents of each 24-well culture were distributed into 48 wells on a 384-well plate and incubated further for 48 h at 37 °C without agitation. After the exposure, the number of wells containing bacteria was scored by eye for yellow wells. Positive and negative controls were included in the assay, and all doses were done in triplicate.
(§5) Pure DMSO was used as the negative control.
(§6) The fold increase of revertants relative to the solvent control was determined by dividing the mean number of positive wells at each dose by the solvent control at baseline. The solvent control at baseline was defined as the mean number of positive wells in the solvent control plus one standard deviation (SD). When an increase of more than 2-fold relative to the baseline at more than one dose with a dose–response is observed the sample is classified as positive, whereas when no response >2 times the baseline and no dose–response is stated the sample is negative.

[5] = Ames MPF Penta 2 microplate mutagenicity assay, TA100; type: cell-based; settings: Salmonella typhimurium, read-out: FIB (fold induction over baseline)
Procedure: as §2, §3, §4, §5, §6

[6] = Ames MPF Penta 2 microplate mutagenicity assay, E. coli; type: cell-based; settings: Escherichia coli, read-out: FIB (fold induction over baseline)
Procedure: as §2, §3, §4, §5, §6

[7] = Ames MPF Penta 2 microplate mutagenicity assay, TA1535; settings: Salmonella typhimurium, FIB (fold induction over baseline)
Procedure: as §2, §3, §4, §5, §6

[8] = S. typhimurium TA100 without S9 (–S9), TA100, –S9, 0.1 mM
[9] = S. typhimurium TA100 without S9 (–S9), TA100, –S9, 0.2 mM
[10] = S. typhimurium TA100 without S9 (–S9), TA100, –S9, 0.5 mM
[11] = E. coli wp2 uvrA[pKM101] without S9 (–S9), E. coli WP2, –S9, 0.1 mM
[12] = E. coli wp2 uvrA[pKM101] without S9 (–S9), E. coli WP2, –S9, 0.2 mM
[13] = E. coli wp2 uvrA[pKM101] without S9 (–S9), E. coli WP2, –S9, 0.5 mM

SMILES | mutagenicity (verdict in words) [1] | fold induction at 90 min [2] | % of Initial AUC [3] | % of Initial SPFin vitro [3] | % of Initial UVA PF [3] | photostability (in words) ([3]; macrogol formulation) | fold induction at 90 min, 0.1 mM ([4]; TA1537, +S9, 0.1 mM) | fold induction at 90 min, 0.2 mM ([4]; TA1537, +S9, 0.2 mM) | fold induction at 90 min, 0.5 mM ([4]; TA1537, +S9, 0.5 mM) | fold induction at 90 min, 0.1 mM ([4]; TA1537, –S9, 0.1 mM) | fold induction at 90 min, 0.2 mM ([4]; TA1537, –S9, 0.2 mM) | fold induction at 90 min, 0.5 mM ([4]; TA1537, –S9, 0.5 mM) | fold induction at 90 min, 0.1 mM [5, 8] | fold induction at 90 min, 0.2 mM [5, 9] | fold induction at 90 min, 0.5 mM [5, 10] | fold induction at 90 min, 0.1 mM ([5]; TA100, +S9, 0.1 mM) | fold induction at 90 min, 0.2 mM ([5]; TA100, +S9, 0.2 mM) | fold induction at 90 min, 0.5 mM ([5]; TA100, +S9, 0.5 mM) | fold induction at 90 min, 0.1 mM [6, 11] | fold induction at 90 min, 0.2 mM [6, 12] | also measured
CCOC(=O)CN1C(=O)/C(=C/c2ccc(OC)cc2)N(CC(=O)OCC)C1=O [Compound 3b, Diethyl 2,2′-((Z)-4-(4-methoxybenzylidene)-2,5-dioxoimidazolidine-1,3-diyl)diacetate] | non-mutagenic | ≤ 2 | 84.67% and 76.50% | 80.46% and 72.69% | 87.04% and 84.08% | very good | 1.1 | 1.1 | 0.3 | 0.3 | 0.3 | 0.3 | 1.1 | 0.8 | 0.7 | 0.7 | 0.6 | 0.6 | 0.3 | 0.7 | photoisomer in post-irradiation chromatogram ([3]; macrogol formulation, UPLC-MS/MS): 32.1%; new photoproduct (besides photoisomer), relative peak area ([3]; macrogol formulation, post-irradiation chromatogram): 2.4%; fold induction at 90 min, 0.5 mM [6, 13]: 0.3; fold induction at 90 min, 0.1 mM ([6]; E. coli WP2, +S9, 0.1 mM): 0.7; fold induction at 90 min, 0.2 mM ([6]; E. coli WP2, +S9, 0.2 mM): 0.6; fold induction at 90 min, 0.5 mM ([6]; E. coli WP2, +S9, 0.5 mM): 0.4; fold induction at 90 min, 0.1 mM ([7]; TA1535, +S9, 0.1 mM): 0.5; fold induction at 90 min, 0.2 mM ([7]; TA1535, +S9, 0.2 mM): 0.1; fold induction at 90 min, 0.5 mM ([7]; TA1535, +S9, 0.5 mM): 0.1; fold induction at 90 min, 0.1 mM ([7]; TA1535, –S9, 0.1 mM): 0.8; fold induction at 90 min, 0.2 mM ([7]; TA1535, –S9, 0.2 mM): 0.6; fold induction at 90 min, 0.5 mM ([7]; TA1535, –S9, 0.5 mM): 1.7
CCOC(=O)CN1C(=O)/C(=C/C=C/c2ccc(OC)cc2)N(CC(=O)OCC)C1=O [Compound 4g, Diethyl 2,2′-((Z)-4-((E)-3-(4-methoxyphenyl)allylidene)-2,5-dioxoimidazolidine-1,3-diyl)diacetate] | non-mutagenic | ≤ 2 | 51.98% | 86.29% | 34.39% | favorable photostability | 1.4 | 1.1 | 0.8 | 0.3 | 1.7 | 0.5 | 1.1 | 0.3 | 0.6 | 0.7 | 0.5 | 0.5 | 0.3 | 1.3 | fold induction at 90 min, 0.5 mM [6, 13]: 1.3; fold induction at 90 min, 0.1 mM ([6]; E. coli WP2, +S9, 0.1 mM): 0.6; fold induction at 90 min, 0.2 mM ([6]; E. coli WP2, +S9, 0.2 mM): 1; fold induction at 90 min, 0.5 mM ([6]; E. coli WP2, +S9, 0.5 mM): 0.7; fold induction at 90 min, 0.1 mM ([7]; TA1535, +S9, 0.1 mM): 0.3; fold induction at 90 min, 0.2 mM ([7]; TA1535, +S9, 0.2 mM): 0.7; fold induction at 90 min, 0.5 mM ([7]; TA1535, +S9, 0.5 mM): 0.3; fold induction at 90 min, 0.1 mM ([7]; TA1535, –S9, 0.1 mM): 0.3; fold induction at 90 min, 0.2 mM ([7]; TA1535, –S9, 0.2 mM): 1.4; fold induction at 90 min, 0.5 mM ([7]; TA1535, –S9, 0.5 mM): 0.6
